Source: patent US7273458B2, “Method of applying acoustic energy effective to alter transport or cell viability” (Georgia Tech Research Corporation, priority 1998, dated 2007)

Tested on: Prostate tumor cells (DU-145)
Assay: Ultrasound-mediated uptake of fluorescent markers into prostate tumor cells (flow cytometry)
Type: cell-based
Details: for time decay constant τ of average uptake versus time of addition after exposure: exponential fit, calcein added ≧15 s after exposure
Description: Prostate tumor cells (DU-145) were suspended in RPMI-1640 medium with 10% fetal bovine serum at 5×10^5 cells/ml. For each experimental condition, a 3 ml polypropylene tube was filled with the cell suspension at room temperature (22±2° C.) and the top of the tube was closed without entrapping any air bubbles. The cells were exposed to ultrasound at 24 kHz in a chamber that consisted of a cylindrical piezoelectric transducer sandwiched between two PVC pipes and filled with deionized and degassed water at room temperature. Pressure, pulse length, duty cycle, and the total exposure time of ultrasound exposure were controlled. Acoustic spectra during exposure were collected using a hydrophone placed in the exposure chamber. Calcein, a green-fluorescent membrane-impermeant marker, dissolved in saline, was added to the suspensions either before or at various times after exposure at a final concentration of 10 μM. Other fluorescent markers, with different sizes, were also used to determine membrane permeability. The cells were kept at room temperature for 15 minutes after exposure, and then placed on ice until they were centrifuged and resuspended in phosphate-buffered saline with 0.1 mg/ml of propidium iodide (a red-fluorescence viability stain). Cell-by-cell fluorescence was measured using flow cytometry, and 6 μm green-fluorescence microspheres were added to each sample at a constant concentration to provide an internal volumetric standard for determining concentrations of viable cells.

## O=C(O)CN(CC(=O)O)Cc1cc2c(cc1O)Oc1cc(O)c(CN(CC(=O)O)CC(=O)O)cc1C21OC(=O)c2ccccc21 [calcein]
Calcein added at different times after exposure
  uptake when added after ultrasound exposure (lifetime of membrane disruptions): significant uptake occurred for up to two minutes after exposure
Examined pressures 5.3, 7.1 and 8.0 atm
  average uptake when added 15 sec. after exposure compared to added before exposure: about 50 % less
Incident pressure 5.3 atm
  time decay constant τ of average uptake versus time of addition after exposure: 78 s
Incident pressure 7.1 atm
  time decay constant τ of average uptake versus time of addition after exposure: 66 s
Incident pressure 8.0 atm
  time decay constant τ of average uptake versus time of addition after exposure: 56 s
Ultrasound 24 kHz, increasing peak incident pressure, 20 pulses of 0.1 sec, 10% duty cycle, calcein 10 μM added before exposure
  average cellular calcein uptake, plateau: 20-25 % of external calcein concentration

## bovine serum albumen [BSA]
Same external concentration (10 μM), exposure conditions of FIG. 7, P=8.0 atm
  average uptake of molecules per exposed cell, less than that of calcein: about 60 % less
